In PubChem BioAssay (NCI) one finds TGI data, which are given here for two molecules.

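Results reflect a 48-hour exposure of cells in 96-well plates to compound at five concentrations. At the TGI there is no net growth.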

Common to all, as to experiment: inhibition of tumour cell growth, NCI panel, 48 h
The test system of assay [1] is MALME-3M melanoma.
In assay [2] the test system is M14 melanoma.
For assay [3], the system named is K-562 leukemia.
Assay [4] relates to 786-0 renal.
Assay [5] relates to A549 NSCLC.
Assay [6] has as its system SNB-75 CNS.
In assay [7] the test system is NCI/ADR-RES ovarian.
The subject of assay [8] is A498 renal.
Assay [9] concerns HCC-2998 colon.
For assay [10], the system named is ACHN renal.
For assay [11], the system named is SK-MEL-5 melanoma.
The subject of assay [12] is SF-295 CNS.
Assay [13] has as its system COLO 205 colon.

Take `CN(C)c1ccc(/C=C(\NC(=O)c2ccccc2)c2nc3ccccc3c(=O)o2)cc1`: the TGI in [1], in [2], in assay [3], in [4], in [5] and in [6] was above 100 µM each time. For the same molecule, the TGI in assay [7], in assay [8], in assay [9], in [10], in assay [11] and in [12] was above 100 µM each time. For the same molecule, the TGI in assay [13] is above 100 µM.

`Nc1ccc2c(c1)N(C(=O)CCCC(=O)N1CC(CCl)c3ccc(N)cc31)CC2CCl` (stereo unspecified): the TGI was 0.451 µM in assay [1]; 4.7 µM in assay [2]; above 15.8 µM in assay [3]; above 29.7 µM in assay [4]; above 50 µM in assay [5]; 2.87 µM in [6]. Besides, the TGI is 42.7 µM in assay [7]; 3.47 µM in assay [8]; above 50 µM in [9]; above 41 µM in [10]; 0.689 µM in assay [11]; above 50 µM in assay [12]. The molecule further yielded a TGI in [13] of 2.1 µM.
